#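 Protocol summary: plate cells (96-well), add compound at 5 concentrations, incubate 48 h, interpolate endpoints linearly. Here, GI50 denotes the concentration required for 50% inhibition of growth.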 Calls of active or inactive are those of the source. Cut-off read from the data, not from the text of the source: active = GI50 up to about 1.1 µM and inactive = higher.
# Key:
# Test in all cases: NCI anticancer screen, dose series, 48 h
# DU-145 = test system: DU-145
# LOX IMVI = test system: LOX IMVI
# MOLT-4 = test system: MOLT-4
# TK-10 = test system: TK-10
# SK-MEL-5 = test system: SK-MEL-5
# COLO 205 = test system: COLO 205
# SK-MEL-2 = test system: SK-MEL-2
# HCC 2998 = test system: HCC 2998
# PC-3 = test system: PC-3
# HCT-15 = test system: HCT-15
# OVCAR-8 = test system: OVCAR-8
# BT-549 = test system: BT-549
# SN12C = test system: SN12C
# NCI-H460 = test system: NCI-H460
# T47D = test system: T47D
# CAKI-1 = test system: CAKI-1
# HT-29 = test system: HT-29
# RPMI-8226 = test system: RPMI-8226
# SK-OV-3 = test system: SK-OV-3
# HOP-92 = test system: HOP-92
Structure (SMILES),GI50 (DU-145),GI50 (LOX IMVI),GI50 (MOLT-4),GI50 (TK-10),GI50 (SK-MEL-5),GI50 (COLO 205),GI50 (SK-MEL-2),GI50 (HCC 2998),GI50 (PC-3),GI50 (HCT-15),GI50 (OVCAR-8),GI50 (BT-549),GI50 (SN12C),GI50 (NCI-H460),GI50 (T47D),GI50 (CAKI-1),GI50 (HT-29),GI50 (RPMI-8226),GI50 (SK-OV-3),GI50 (HOP-92)
Cc1nn(C(=O)c2ccccc2O)c2c1C(c1ccccc1)SC(=N)N2 (stereo not drawn),0.627 µM (active),3.1 µM (inactive),2.75 µM (inactive),0.897 µM (active),3.19 µM (inactive),3.87 µM (inactive),3.58 µM (inactive),7.69 µM (inactive),4.57 µM (inactive),3.86 µM,0.867 µM (active),> 10 µM (inactive),2.25 µM (inactive),3.64 µM (inactive),5.43 µM (inactive),0.547 µM (active),5.38 µM (inactive),2.97 µM (inactive),5.6 µM (inactive),
O=[N+]([O-])C(/C(Cl)=C(/Cl)N1CCOCC1)=C1\Nc2ccccc2O1,70.3 µM (inactive),,> 100 µM (inactive),,,> 100 µM (inactive),> 100 µM (inactive),16.1 µM (inactive),> 100 µM (inactive),> 100 µM,> 100 µM (inactive),> 100 µM (inactive),> 100 µM (inactive),12.7 µM (inactive),> 100 µM (inactive),> 100 µM (inactive),> 100 µM (inactive),> 100 µM (inactive),> 100 µM (inactive),
CCC(C=O)P1(=O)OC(C)(C)CN1C(C)(C)C (stereo not drawn),> 100 µM (inactive),> 100 µM (inactive),,93.3 µM (inactive),> 100 µM (inactive),> 100 µM (inactive),34.9 µM (inactive),76.7 µM (inactive),84.3 µM (inactive),99.8 µM,> 100 µM (inactive),> 100 µM (inactive),,> 100 µM (inactive),31.6 µM (inactive),> 100 µM (inactive),> 100 µM (inactive),65.3 µM (inactive),68.1 µM (inactive),
COc1ccc2[nH]c3c(C)c4ccnc(NCCCN(C)CCCNc5ccc([N+](=O)[O-])c6[nH]c7ccccc7c(=O)c56)c4c(C)c3c2c1,0.628 µM (active),0.14 µM (active),0.005 µM (active),0.018 µM (active),0.11 µM (active),0.0723 µM (active),0.731 µM (active),0.0178 µM (active),0.426 µM (active),0.0295 µM,0.472 µM (active),0.678 µM (active),0.0524 µM (active),0.025 µM (active),0.815 µM (active),0.466 µM (active),0.00813 µM (active),0.0826 µM (active),0.76 µM (active),
COc1cc(-c2c3c(cc4c2OCO4)[C@@H](Nc2ccc4c(c2)Cc2cc(N[C@@H]5c6cc7c(cc6C(c6cc(OC)c(O)c(OC)c6)[C@H]6C(=O)OC[C@H]56)OCO7)ccc2-4)[C@H]2COC(=O)[C@@H]2C3)cc(OC)c1O (stereo partly drawn),26.3 µM (inactive),51.3 µM (inactive),> 100 µM (inactive),31 µM (inactive),18.5 µM (inactive),15.3 µM (inactive),,,10.9 µM (inactive),43.8 µM,40.6 µM (inactive),35.1 µM (inactive),> 100 µM (inactive),17.3 µM (inactive),98.2 µM (inactive),23.4 µM (inactive),20 µM (inactive),> 100 µM (inactive),14.8 µM (inactive),10.2 µM (inactive)
Cc1csc2n(C)c(=O)c3ccccc3[n+]12,> 100 µM (inactive),> 100 µM (inactive),> 100 µM (inactive),> 100 µM (inactive),98.4 µM (inactive),> 100 µM (inactive),> 100 µM (inactive),> 100 µM (inactive),> 100 µM (inactive),> 100 µM,> 100 µM (inactive),79.4 µM (inactive),> 100 µM (inactive),> 100 µM (inactive),> 100 µM (inactive),> 100 µM (inactive),> 100 µM (inactive),> 100 µM (inactive),> 100 µM (inactive),

# Source: ChEMBL document CHEMBL1201862, “PubChem BioAssay data set” (2004)
